# Data: patent US7863499B2, “Model of infantile spasm syndrome” (Albert Einstein College of Medicine of Yeshiva University, priority 2007, dated 2011)
# Tested on: rat pups
# Assay: Induction of spasm-like seizures in rat pups (video monitoring)
# Type: in vivo
# Conditions: PCPA only, five pups
# Description: […] The pups were injected with DOX i.c.v. and LPS intracerebrally in the right centroparietal cortex at P3; PCPA was administered i.p. at P5. […] There were no sex differences and the data were combined.
# Behavioral seizures and spasm-like episodes. […] Seven pups had recurrent seizures resembling spasms. Spasms were first observed at P7 in 60% of the pups. […] The spasms were characterized by the abrupt onset of flexion of the trunk with extension of the limbs at the height of the spasm (the sequence is shown in FIG. 2). In two pups, extension spasms were sometimes observed. The spasms lasted from 1 to 5 seconds.
# Anesthesia. Rat pups were anesthetized with 2% isoflurane in 100% O2 continuously delivered by a small facemask, custom-fitted to the stereotaxic frame.
# Injections of DOX and LPS. Both male and female rats were used. At P3, stereotaxic injections of DOX and LPS were performed using a 25 μL Hamilton syringe. DOX was injected into the right ventricle (AP=−1.0, ML=1.1, DV=−3.3, reference to bregma) and LPS into the right cerebral hemisphere (AP=−1.0, ML=1.0, DV=2.0, reference to bregma). The injection volume is 5 μl for DOX and 7 μl for LPS. The pups were allowed to recover before returning to the dam.
# Titration of doses of agents used to induce spasms. […]
smiles,measurement,value
"N[C@@H](Cc1ccc(Cl)cc1)C(=O)O (racemic) [PCPA, p-chlorophenylalanine]",development of spasms,none of those pups developed spasms
